This passage reports GI50 and TGI results from PubChem BioAssay (NCI).

Test systems include SK-MEL-5 melanoma; COLO 205 colon; IGROV1 ovarian; MOLT-4 leukemia; U251 CNS; HCC-2998 colon; NCI/ADR-RES ovarian; OVCAR-3 ovarian; M14 melanoma; NCI-H23 lung.
Holding throughout (assay): inhibition of tumour cell growth, NCI panel, 48 h

Where “and” joins values, the source holds several entries; their conditions need not be identical. Equal entries are not always repeated.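 48-hour exposure; five concentrations; linearly interpolated endpoints. GI50 marks 50% less growth. TGI is the concentration that stops growth completely.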

For the compound `O=C(c1ccco1)c1c(C(F)(F)F)n([O-])c2ccc(C(F)(F)F)cc2[n+]1=O`, the GI50 with SK-MEL-5 melanoma was 0.508 µM; in the experiment on COLO 205 colon, 0.468 µM; with IGROV1 ovarian it was 0.368 µM; in the experiment on MOLT-4 leukemia, 0.0912 µM; in the experiment on U251 CNS, 0.217 µM; in the experiment on HCC-2998 colon it was 1.04 µM. The GI50 with NCI/ADR-RES ovarian is 0.257 µM; in the experiment with OVCAR-3 ovarian, 0.383 µM; in the experiment on M14 melanoma, 1.04 µM; in the experiment with NCI-H23 lung it was 0.853 µM. In addition, the TGI worked out at 1.09 µM in the experiment on SK-MEL-5 melanoma; 0.987 µM in the experiment with COLO 205 colon; 1.48 µM with IGROV1 ovarian; 0.313 µM with MOLT-4 leukemia; 0.536 µM in the experiment with U251 CNS; 2.5 µM with HCC-2998 colon. Further, the TGI in the experiment with NCI/ADR-RES ovarian turned out to be 0.939 µM; in the experiment on OVCAR-3 ovarian, 0.835 µM; in the experiment on M14 melanoma it was 2.48 µM; in the experiment on NCI-H23 lung it was 2.3 µM.
On to `O=C(Nc1cc(Cl)ccc1O)c1ccc(Nc2ccnc(C(F)(F)F)c2)cc1`, for which the GI50 in the experiment on SK-MEL-5 melanoma is 2.19 µM; with COLO 205 colon it was 1.86 µM; with IGROV1 ovarian it was 2.34 µM; with MOLT-4 leukemia it was 1.75 µM; in the experiment on U251 CNS, 3.47 µM; in the experiment on HCC-2998 colon, 3.73 µM. Besides, the GI50 in the experiment with NCI/ADR-RES ovarian was 2.93 µM; in the experiment with OVCAR-3 ovarian it was 2.16 µM; in the experiment on M14 melanoma it was 3.56 µM; with NCI-H23 lung, 2.46 µM. For the same compound, the TGI in the experiment on SK-MEL-5 melanoma was 4.95 µM; in the experiment on COLO 205 colon, 4.23 µM; in the experiment with IGROV1 ovarian, 8.19 µM; in the experiment on MOLT-4 leukemia, 6.6 µM; in the experiment with U251 CNS, above 100 µM; with HCC-2998 colon, above 100 µM. In addition, the TGI was above 100 µM with NCI/ADR-RES ovarian, 5.58 µM with OVCAR-3 ovarian, 54.1 µM in the experiment with M14 melanoma and 7.81 µM in the experiment on NCI-H23 lung.
For the compound `COC(=O)C1=COC(C)C2CN3CCc4c([nH]c5ccccc45)C3CC12` (stereo not drawn), the GI50 with SK-MEL-5 melanoma is 22.6 µM and > 100 µM; in the experiment with COLO 205 colon, 18.2 µM and > 100 µM; in the experiment on IGROV1 ovarian it was 22.1 µM and > 100 µM; in the experiment with MOLT-4 leukemia, 11 µM and 28.3 µM; in the experiment with U251 CNS, 24.6 µM and > 100 µM; in the experiment with HCC-2998 colon, 20.6 µM and > 100 µM. Also, the GI50 in the experiment on NCI/ADR-RES ovarian is 22.6 µM and > 100 µM; with OVCAR-3 ovarian it was 24.2 µM and > 100 µM; in the experiment on M14 melanoma, 38.4 µM and > 100 µM; in the experiment with NCI-H23 lung, 33.8 µM and > 100 µM. The TGI was 66.4 µM and > 100 µM in the experiment on SK-MEL-5 melanoma; 36.4 µM and > 100 µM with COLO 205 colon; 80.2 µM and > 100 µM in the experiment with IGROV1 ovarian; 32.7 µM and > 100 µM with MOLT-4 leukemia; 81.4 µM and > 100 µM in the experiment with U251 CNS; 44.7 µM and > 100 µM in the experiment on HCC-2998 colon. The TGI with NCI/ADR-RES ovarian, in the experiment with OVCAR-3 ovarian, with M14 melanoma and with NCI-H23 lung was above 100 µM each time.
Take `COc1cc2c(/C=N\N=C(N)N)c[nH]c2cc1C`: the GI50 in the experiment with SK-MEL-5 melanoma is 17.2 µM; with COLO 205 colon, 17.3 µM; in the experiment on IGROV1 ovarian it was 33.2 µM; in the experiment with MOLT-4 leukemia it was 14.2 µM; in the experiment with U251 CNS, 13.2 µM; in the experiment on HCC-2998 colon it was 15.8 µM. Further, the GI50 is 22 µM in the experiment on NCI/ADR-RES ovarian, 13.5 µM in the experiment with OVCAR-3 ovarian, 15.1 µM in the experiment on M14 melanoma and 18.7 µM in the experiment on NCI-H23 lung. For the same compound, the TGI in the experiment with SK-MEL-5 melanoma was 30.9 µM; with COLO 205 colon, 35.1 µM; with IGROV1 ovarian, above 100 µM; with MOLT-4 leukemia, 27.2 µM; in the experiment on U251 CNS it was 27.3 µM; with HCC-2998 colon it was 29.2 µM. In addition, the TGI with NCI/ADR-RES ovarian was 59.4 µM; with OVCAR-3 ovarian, 27.3 µM; in the experiment with M14 melanoma, 28.3 µM; in the experiment with NCI-H23 lung it was 53.5 µM.
For the compound `O=C(/C=C/c1ccccc1)c1ccccc1`, the TGI in the experiment with SK-MEL-5 melanoma is above 10 µM; with COLO 205 colon, above 10 µM; in the experiment on IGROV1 ovarian, above 10 µM; in the experiment with MOLT-4 leukemia, above 3.16 µM; in the experiment on U251 CNS, above 10 µM; in the experiment on HCC-2998 colon it was above 10 µM. Further, the TGI with NCI/ADR-RES ovarian, in the experiment on OVCAR-3 ovarian, with M14 melanoma and in the experiment on NCI-H23 lung was above 10 µM throughout.
Take `COC(c1ccc(C(C)(C)C)cc1)(c1ccc(C(C)(C)C)cc1)c1ccc(C(C)(C)C)cc1`: the TGI in the experiment on SK-MEL-5 melanoma, with COLO 205 colon, with IGROV1 ovarian, in the experiment with MOLT-4 leukemia, in the experiment with U251 CNS and in the experiment on HCC-2998 colon was above 100 µM each time. For the same compound, the TGI in the experiment on NCI/ADR-RES ovarian, in the experiment on OVCAR-3 ovarian, in the experiment with M14 melanoma and in the experiment on NCI-H23 lung was above 100 µM in each case.
Take `CCCc1cc(=O)n2c(C(=O)Nc3ccc(Cl)cc3C)c(C(=O)Nc3ccc(F)cc3)sc2n1`: the GI50 with SK-MEL-5 melanoma was 27.1 µM; in the experiment on COLO 205 colon, 16.9 µM; with IGROV1 ovarian, 9.31 µM; in the experiment with MOLT-4 leukemia, 3.99 µM; in the experiment on U251 CNS, 1.51 µM; with HCC-2998 colon it was 96.6 µM. Further, the GI50 in the experiment with NCI/ADR-RES ovarian was 10.6 µM; with OVCAR-3 ovarian, 3.35 µM; in the experiment with M14 melanoma it was 4.67 µM; in the experiment on NCI-H23 lung, 26.4 µM. Moreover, the TGI is above 150 µM in the experiment on SK-MEL-5 melanoma; above 150 µM in the experiment with COLO 205 colon; 33.6 µM with IGROV1 ovarian; 22.2 µM in the experiment on MOLT-4 leukemia; 4.37 µM with U251 CNS; above 150 µM in the experiment with HCC-2998 colon. The TGI with NCI/ADR-RES ovarian was 59.7 µM; with OVCAR-3 ovarian, 8.33 µM; in the experiment on M14 melanoma it was 23.7 µM; in the experiment with NCI-H23 lung it was above 150 µM.
As for `COc1ccc(-c2nn(-c3cccc(Cl)c3)cc2-c2cc(-c3ccccc3)[nH]c(=O)c2C#N)cc1`, the GI50 was 5.76 µM with SK-MEL-5 melanoma; 7.4 µM with COLO 205 colon; 1.89 µM with IGROV1 ovarian; 42.3 µM in the experiment on MOLT-4 leukemia; 1.48 µM in the experiment on U251 CNS; 15.9 µM in the experiment with HCC-2998 colon. Also, the GI50 was 2.14 µM in the experiment with NCI/ADR-RES ovarian, 2.84 µM in the experiment on OVCAR-3 ovarian, 2.27 µM in the experiment on M14 melanoma and 2.46 µM in the experiment with NCI-H23 lung. Also, the TGI in the experiment on SK-MEL-5 melanoma is above 50 µM; with COLO 205 colon it was above 50 µM; with IGROV1 ovarian, 7.71 µM; with MOLT-4 leukemia, above 50 µM; in the experiment on U251 CNS it was 6.76 µM; in the experiment with HCC-2998 colon it was above 50 µM. The TGI with NCI/ADR-RES ovarian stood at 36 µM; with OVCAR-3 ovarian it was 16.8 µM; in the experiment with M14 melanoma, 34.6 µM; with NCI-H23 lung, 13.6 µM.
As for `CC(C)[C@H](O)C(=O)N[C@@H](C)C(=O)N[C@@H]1C(=O)N(C)CCc2ccccc21`, the GI50 with SK-MEL-5 melanoma, with COLO 205 colon, with IGROV1 ovarian, in the experiment on MOLT-4 leukemia, in the experiment with U251 CNS and with HCC-2998 colon was above 100 µM throughout. For the same compound, the GI50 with NCI/ADR-RES ovarian, with OVCAR-3 ovarian, in the experiment with M14 melanoma and with NCI-H23 lung was above 100 µM each time. In addition, the TGI in the experiment with SK-MEL-5 melanoma, in the experiment with COLO 205 colon, in the experiment on IGROV1 ovarian, with MOLT-4 leukemia, with U251 CNS and in the experiment with HCC-2998 colon was above 100 µM in each case. Also, the TGI in the experiment on NCI/ADR-RES ovarian, in the experiment on OVCAR-3 ovarian, in the experiment on M14 melanoma and with NCI-H23 lung was above 100 µM in each case.
With `Nc1cc(Br)c(-c2nnc(CCC(=O)c3nc4ccccc4[nH]3)o2)c(Br)c1`, the GI50 with SK-MEL-5 melanoma was 14.2 µM; in the experiment with COLO 205 colon, 11.8 µM; with IGROV1 ovarian, 5.87 µM; in the experiment on MOLT-4 leukemia, 4.94 µM; with U251 CNS, 3.5 µM; with HCC-2998 colon, 11 µM. The GI50 in the experiment on NCI/ADR-RES ovarian is 22.6 µM; in the experiment on OVCAR-3 ovarian it was 2.6 µM; with M14 melanoma, 17.5 µM; in the experiment with NCI-H23 lung, 3.26 µM. Besides, the TGI is above 100 µM in the experiment with SK-MEL-5 melanoma; 30.8 µM in the experiment with COLO 205 colon; 62.7 µM with IGROV1 ovarian; above 100 µM in the experiment with MOLT-4 leukemia; above 100 µM in the experiment with U251 CNS; 42.5 µM in the experiment with HCC-2998 colon. Moreover, the TGI in the experiment on NCI/ADR-RES ovarian was above 100 µM; in the experiment with OVCAR-3 ovarian, 6.98 µM; in the experiment with M14 melanoma, 55.5 µM; in the experiment on NCI-H23 lung, 36.4 µM.
As to `CC(C)c1[nH]nc2c1N=C(c1ccccc1Cl)c1cc([N+](=O)[O-])ccc1N2`, the GI50 is 5.33 µM in the experiment on SK-MEL-5 melanoma; 10.3 µM with COLO 205 colon; 9.46 µM in the experiment with IGROV1 ovarian; 6.76 µM in the experiment on MOLT-4 leukemia; 6.16 µM in the experiment on U251 CNS; 6.91 µM in the experiment on HCC-2998 colon. Also, the GI50 in the experiment on NCI/ADR-RES ovarian is 6.37 µM; with OVCAR-3 ovarian it was 4.68 µM; in the experiment with M14 melanoma, 7.63 µM; in the experiment on NCI-H23 lung, 7.24 µM. Also, the TGI in the experiment with SK-MEL-5 melanoma is 16.2 µM; with COLO 205 colon it was above 25 µM; in the experiment on IGROV1 ovarian it was 24.4 µM; with MOLT-4 leukemia, 20.6 µM; in the experiment with U251 CNS, above 25 µM; in the experiment on HCC-2998 colon, above 19.1 µM. Besides, the TGI in the experiment on NCI/ADR-RES ovarian is above 25 µM; in the experiment on OVCAR-3 ovarian, 13.1 µM; in the experiment on M14 melanoma it was above 25 µM; in the experiment with NCI-H23 lung it was above 25 µM.
For the compound `Cc1cc(Nc2nc(-c3cn(-c4ccc(Cl)cc4)nn3)nc3ccccc23)n[nH]1`, the GI50 in the experiment with SK-MEL-5 melanoma is 20.8 µM; with COLO 205 colon it was 38.2 µM; in the experiment with IGROV1 ovarian, 9.16 µM; in the experiment with MOLT-4 leukemia it was 22 µM; in the experiment on U251 CNS, 9.39 µM; with HCC-2998 colon it was 36.4 µM. Moreover, the figures for the GI50 in the experiment with NCI/ADR-RES ovarian, in the experiment on OVCAR-3 ovarian and in the experiment with M14 melanoma were 1.58 µM, 10.5 µM and 7.54 µM, respectively. Also, the TGI in the experiment on SK-MEL-5 melanoma, in the experiment with COLO 205 colon, with IGROV1 ovarian, with MOLT-4 leukemia, with U251 CNS and in the experiment on HCC-2998 colon was above 50 µM each time. Also, the TGI was above 50 µM with NCI/ADR-RES ovarian, 23.4 µM in the experiment on OVCAR-3 ovarian and above 50 µM in the experiment on M14 melanoma.
